In patent publication US8304416B2, “Chromenone derivatives” (Merck Patent GmbH, priority 2003, dated 2012):
pIC50: −log10 of the molar value.

Columns and labels:
Format in all cases: biochemical
[1] = biological target: Tie2 (Homo sapiens, UniProt Q02763); test: Inhibition of Tie2
[2] = biological target: PKB (Homo sapiens, UniProt P31749); test: Inhibition of PKB
[3] = tested on: RAF; test: Inhibition of RAF

Chain of Tie2 (Q02763 23-1124, species assumed): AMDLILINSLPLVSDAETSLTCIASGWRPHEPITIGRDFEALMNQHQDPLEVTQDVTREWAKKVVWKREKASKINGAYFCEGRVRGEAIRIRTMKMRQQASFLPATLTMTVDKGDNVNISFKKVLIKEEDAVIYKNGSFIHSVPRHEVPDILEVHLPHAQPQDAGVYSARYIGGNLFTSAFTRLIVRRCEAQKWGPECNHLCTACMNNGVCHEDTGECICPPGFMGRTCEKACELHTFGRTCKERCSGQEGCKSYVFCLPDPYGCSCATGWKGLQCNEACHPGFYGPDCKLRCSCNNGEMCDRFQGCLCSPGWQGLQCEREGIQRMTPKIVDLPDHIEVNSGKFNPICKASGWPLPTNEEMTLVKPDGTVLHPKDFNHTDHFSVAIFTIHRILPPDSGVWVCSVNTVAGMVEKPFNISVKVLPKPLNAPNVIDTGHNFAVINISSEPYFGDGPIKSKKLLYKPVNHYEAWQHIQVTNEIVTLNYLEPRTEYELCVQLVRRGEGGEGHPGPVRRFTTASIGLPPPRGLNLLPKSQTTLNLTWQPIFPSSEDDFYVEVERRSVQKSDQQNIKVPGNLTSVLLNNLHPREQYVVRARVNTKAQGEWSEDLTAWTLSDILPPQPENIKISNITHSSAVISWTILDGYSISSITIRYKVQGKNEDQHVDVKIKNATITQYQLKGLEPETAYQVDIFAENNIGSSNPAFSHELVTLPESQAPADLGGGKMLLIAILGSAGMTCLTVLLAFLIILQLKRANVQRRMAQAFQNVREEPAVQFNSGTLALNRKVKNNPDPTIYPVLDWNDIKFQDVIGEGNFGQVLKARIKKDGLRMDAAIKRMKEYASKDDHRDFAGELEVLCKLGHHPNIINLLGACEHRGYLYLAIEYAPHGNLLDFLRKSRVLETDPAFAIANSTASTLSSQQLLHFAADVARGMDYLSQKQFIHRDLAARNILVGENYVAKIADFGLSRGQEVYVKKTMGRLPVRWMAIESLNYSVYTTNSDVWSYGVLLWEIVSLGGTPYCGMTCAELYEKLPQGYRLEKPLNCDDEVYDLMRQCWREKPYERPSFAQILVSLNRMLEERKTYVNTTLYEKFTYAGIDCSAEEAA
Chain of PKB (P31749 whole entry, species assumed): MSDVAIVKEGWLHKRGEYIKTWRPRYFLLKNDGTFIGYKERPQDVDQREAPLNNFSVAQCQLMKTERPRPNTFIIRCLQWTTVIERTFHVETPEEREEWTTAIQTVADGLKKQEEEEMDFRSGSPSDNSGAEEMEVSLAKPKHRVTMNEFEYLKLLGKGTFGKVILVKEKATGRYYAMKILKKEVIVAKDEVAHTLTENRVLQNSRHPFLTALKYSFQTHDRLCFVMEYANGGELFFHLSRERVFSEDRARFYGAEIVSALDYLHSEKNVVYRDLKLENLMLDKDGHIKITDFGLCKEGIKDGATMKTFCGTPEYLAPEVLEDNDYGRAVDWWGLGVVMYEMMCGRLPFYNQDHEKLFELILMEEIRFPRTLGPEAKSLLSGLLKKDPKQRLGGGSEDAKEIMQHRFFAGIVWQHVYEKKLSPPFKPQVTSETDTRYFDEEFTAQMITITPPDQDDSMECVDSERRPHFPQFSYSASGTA

Row | pIC50 [1] | pIC50 [2] | pIC50 [3] | Compound
1 | < 5.00 | < 5.00 | < 6.00 | Cn1ccnc1C(=O)c1cc(=O)c2c(O)cc(O)cc2o1
2 | < 5.00 | < 5.00 | < 6.00 | O=C(c1ccccn1)c1cc(=O)c2c(O)cc(O)cc2o1
3 | < 5.00 | < 5.00 | < 6.00 | O=C(c1cc(=O)c2cc(O)ccc2o1)c1nc2ccccc2s1
4 | < 5.00 | 5.03 | < 6.00 | O=C(c1cc(=O)c2cc(O)ccc2o1)c1ncc(Cl)nc1Cl
5 | < 5.00 | < 5.00 | < 6.00 | Cn1ccnc1C(=O)c1cc(=O)c2cc(O)ccc2o1
6 | < 5.00 | < 5.00 | < 6.00 | O=C(c1ccccn1)c1cc(=O)c2cc(O)ccc2o1
